Among the test systems are CCRF-CEM leukemia; OVCAR-8 ovarian; RXF 393 renal; LOX IMVI melanoma; NCI-H460 lung; HCT-116 colon; OVCAR-4 ovarian; SNB-75 CNS; NCI-H226 lung; SNB-19 CNS.
Assay in all cases: growth of human tumour cells (NCI), 48 h

The structures appear in SMILES notation.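 Protocol summary: plate cells (96-well), add compound at 5 concentrations, incubate 48 h, interpolate endpoints linearly. Here, GI50 denotes the concentration required for 50% inhibition of growth. At the TGI there is no net growth.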 Where a SMILES comes first, the peptide text is derived from it. The star is where a group is joined. Trt = c1ccc(C(c2ccccc2)(c2ccccc2)*)cc1; Cbz = O=C(OCc1ccccc1)*

For nine molecules, GI50 and TGI results are on record in PubChem BioAssay (NCI).

Regarding `Cc1cc2nc(-c3c(F)cccc3Cl)n(Cc3c(F)cccc3Cl)c2cc1C`, the GI50 was 2.6 µM in the test with CCRF-CEM leukemia; 18.9 µM in the test on OVCAR-8 ovarian; 11.8 µM in the test on RXF 393 renal; 13.5 µM in the test with LOX IMVI melanoma; 6.32 µM in the test on NCI-H460 lung; 6.43 µM in the test with HCT-116 colon. Moreover, the GI50 with OVCAR-4 ovarian was 19 µM; in the test on SNB-75 CNS, 45.5 µM; with NCI-H226 lung, 15 µM; with SNB-19 CNS it was 25.5 µM. The TGI with CCRF-CEM leukemia is greater than 100 µM; with OVCAR-8 ovarian, 46.6 µM; with RXF 393 renal, 28.4 µM; in the test on LOX IMVI melanoma it was 30.2 µM; in the test on NCI-H460 lung it was 30.9 µM; in the test with HCT-116 colon, 20.3 µM. The TGI with OVCAR-4 ovarian is 74.1 µM; with SNB-75 CNS it was greater than 100 µM; in the test on NCI-H226 lung, 38.3 µM; in the test on SNB-19 CNS it was 93.7 µM.
As to `COC(=O)/C(=N\Nc1nnc(C)n1N)C(C#N)c1ccccc1` (stereo not given), the TGI in the test on CCRF-CEM leukemia, in the test on OVCAR-8 ovarian, in the test on RXF 393 renal, with LOX IMVI melanoma, in the test with NCI-H460 lung and with HCT-116 colon was greater than 100 µM in each case. The TGI was greater than 67.4 µM in the test on OVCAR-4 ovarian, greater than 100 µM in the test with SNB-75 CNS, greater than 100 µM in the test with NCI-H226 lung and greater than 100 µM in the test with SNB-19 CNS.
Take `NC(=O)c1ccc(N(C(N)=O)c2c(F)cccc2F)nc1-c1ccc(F)cc1F`: the GI50 in the test with CCRF-CEM leukemia, in the test on OVCAR-8 ovarian, with RXF 393 renal, with LOX IMVI melanoma, in the test on NCI-H460 lung and with HCT-116 colon was greater than 100 µM each time. Further, the GI50 in the test with OVCAR-4 ovarian, in the test on SNB-75 CNS, with NCI-H226 lung and with SNB-19 CNS was greater than 100 µM each time. The TGI in the test with CCRF-CEM leukemia, with OVCAR-8 ovarian, with RXF 393 renal, with LOX IMVI melanoma, in the test with NCI-H460 lung and in the test on HCT-116 colon was greater than 100 µM throughout. Further, the TGI with OVCAR-4 ovarian, with SNB-75 CNS, in the test with NCI-H226 lung and with SNB-19 CNS was greater than 100 µM each time.
As for `Cc1c(Cl)c(C)c(Cc2c(C)c(Cl)c(C)c(Cl)c2O)c(O)c1Cl`, the GI50 with CCRF-CEM leukemia is 2.57 µM; in the test on OVCAR-8 ovarian, 3.73 µM; in the test with RXF 393 renal, 2 µM; with LOX IMVI melanoma it was 3.18 µM; in the test with NCI-H460 lung it was 2.43 µM; with HCT-116 colon it was 2.42 µM. Moreover, the GI50 was 2.99 µM in the test with OVCAR-4 ovarian, 2.27 µM in the test on SNB-75 CNS, 2.52 µM with NCI-H226 lung and 3.15 µM in the test with SNB-19 CNS. Moreover, the TGI amounted to 12.6 µM in the test on CCRF-CEM leukemia; 21.6 µM in the test with OVCAR-8 ovarian; 6.89 µM with RXF 393 renal; 10.5 µM in the test on LOX IMVI melanoma; 10.2 µM in the test with NCI-H460 lung; 10.5 µM in the test with HCT-116 colon. Also, the TGI in the test with OVCAR-4 ovarian was found to be 9.97 µM; with SNB-75 CNS, 7.93 µM; in the test on NCI-H226 lung it was 10.7 µM; with SNB-19 CNS it was 13.8 µM.
With `COc1cc(-c2cc(=O)c3c(O)c(OC)c(OC)c(OC)c3o2)cc(OC)c1OC`, the TGI in the test on CCRF-CEM leukemia is greater than 100 µM; in the test on OVCAR-8 ovarian it was greater than 100 µM; with RXF 393 renal, 33.2 µM; in the test on LOX IMVI melanoma, greater than 100 µM; with NCI-H460 lung it was greater than 100 µM; with HCT-116 colon it was greater than 44.9 µM. The TGI with OVCAR-4 ovarian was greater than 100 µM; in the test with SNB-75 CNS it was 6.2 µM; in the test with NCI-H226 lung it was greater than 80.1 µM; in the test on SNB-19 CNS, greater than 78.7 µM.
`CC(=O)NC(CCCN(Cc1ccccc1)C(=O)N(C)N=O)C(=O)NCc1ccccc1` (stereo not given): the TGI in the test with CCRF-CEM leukemia, with OVCAR-8 ovarian, with RXF 393 renal, in the test on LOX IMVI melanoma, in the test with NCI-H460 lung and in the test on HCT-116 colon was greater than 100 µM in each case. Besides, the TGI is greater than 100 µM in the test on OVCAR-4 ovarian, 91 µM in the test with SNB-75 CNS, greater than 100 µM in the test with NCI-H226 lung and greater than 100 µM in the test on SNB-19 CNS.
Take `COC(=O)C(CSC(c1ccccc1)(c1ccccc1)c1ccccc1)NC(=O)C(CC(N)=O)NC(=O)OCc1ccccc1` (stereo not drawn) (Cbz-Asn-Cys(Trt)-OMe; configuration not given here): the GI50 in the test on CCRF-CEM leukemia was 3.33 µM; with OVCAR-8 ovarian, 3.16 µM; in the test with RXF 393 renal, 3.17 µM; with LOX IMVI melanoma it was 1.83 µM; with NCI-H460 lung, 4.5 µM; in the test with HCT-116 colon, 2.79 µM. The GI50 in the test with OVCAR-4 ovarian was 7.64 µM; in the test on SNB-75 CNS, 5.43 µM; with NCI-H226 lung, 5.43 µM; in the test with SNB-19 CNS, 5.22 µM. Further, the TGI was 19.7 µM in the test on CCRF-CEM leukemia; 17 µM with OVCAR-8 ovarian; 13.5 µM with RXF 393 renal; 3.51 µM with LOX IMVI melanoma; 15.8 µM with NCI-H460 lung; 10.7 µM with HCT-116 colon. For the same molecule, the TGI with OVCAR-4 ovarian was found to be 84.8 µM; in the test on SNB-75 CNS it was 24.6 µM; in the test on NCI-H226 lung it was 22 µM; with SNB-19 CNS it was 18.9 µM.
For the molecule `C#CCOCn1cnc2ncnc(N)c21`, the TGI in the test with CCRF-CEM leukemia, in the test on OVCAR-8 ovarian, in the test on RXF 393 renal, in the test on LOX IMVI melanoma, with NCI-H460 lung and with HCT-116 colon was greater than 100 µM throughout. In addition, the TGI in the test on OVCAR-4 ovarian, with SNB-75 CNS, with NCI-H226 lung and with SNB-19 CNS was greater than 100 µM throughout.
Consider `Cc1c(Cl)cccc1NC(=O)c1sc2nc3c(cc2c1N)CCCC3`, for which the GI50 is 0.447 µM with CCRF-CEM leukemia; 3.42 µM with OVCAR-8 ovarian; 0.514 µM with RXF 393 renal; 0.576 µM in the test on LOX IMVI melanoma; 0.473 µM in the test on NCI-H460 lung; 0.425 µM in the test on HCT-116 colon. Moreover, the GI50 in the test with OVCAR-4 ovarian is 0.827 µM; in the test with SNB-75 CNS it was 0.282 µM; in the test with NCI-H226 lung, greater than 100 µM; in the test with SNB-19 CNS, 0.979 µM. The TGI is greater than 100 µM in the test on CCRF-CEM leukemia; greater than 100 µM in the test with OVCAR-8 ovarian; greater than 89.6 µM in the test on RXF 393 renal; greater than 100 µM with LOX IMVI melanoma; greater than 100 µM in the test on NCI-H460 lung; greater than 100 µM with HCT-116 colon. Moreover, the TGI is greater than 100 µM in the test on OVCAR-4 ovarian, greater than 66.1 µM in the test with SNB-75 CNS, greater than 100 µM with NCI-H226 lung and greater than 100 µM in the test with SNB-19 CNS.
